≈ marks a conversion by molar mass, not a printed value.
Tests used:
CD-1 nu/nlu mice = test: Acute toxicity in CD-1 nu/nu mice; type: in vivo; settings: i.v.; 6% Tween/4.5% Glycocholate/5% EtOH formulation
Procedure: (§1) Toxicity and therapeutic efficacy of polycyclic aromatic compounds can be determined by standard pharmaceutical procedures in cell cultures or experimental animals. Therapeutic efficacy is determined in animal models as described above and in the examples herein. Toxicity studies are done to determine the lethal dose for 10% of tested animals (LD10). Animals are treated at the maximum tolerated dose (MTD): the highest dose not producing mortality or greater than 20% body weight loss. The effective dose (ED) is related to the MTD in a given tumor model to determine the therapeutic index of the compound.
(§2) In vivo toxicity: With CD1 mice, the maximum tolerated dose (MTD) for a single-dose via i.v. or i.p. routes in 1% SDS formulation was ≧5 mg/kg. The acute toxicity in CD-1 nu/nlu mice of Compound 1 was also determined in 6% Tween/4.5% Glycocholate/5% EtOH formulation.

[1] = Acute toxicity in CD-1 nu/nu mice; type: in vivo; settings: CD-1 nu/nu, mouse, in vivo, 6% Tween/4.5% Glycocholate/5% EtOH formulation
Procedure: as §1, §2

[2] = In vivo toxicity: single-dose maximum tolerated dose in CD1 mice; settings: mouse, other: i.v. or i.p. (intravenous or intraperitoneal), single-dose via i.v. or i.p. routes, 1% SDS formulation
Procedure: as §1, §2

[3] = system: MDA-MB-231 (mammary gland adenocarcinoma); test: In vitro tumor growth inhibition (GI50, propidium iodide); type: cell-based; settings: Homo sapiens, 96 hrs
CRL nu/nu mice = test: Repeated dose toxicity in CRL nu/nu mice; type: in vivo
Procedure: Repeated dose toxicity was evaluated in CRL nu/nu mice (6% Tween/4.5% Glycocholate/5% EtOH formulation). The MTTD (maximum total tolerated dose) was 25 mg/kg with a qd×4 dosage regimen.

Sheep red blood cells = test: In vitro toxicity: hemolytic activity; type: cell-based; settings: 2 hrs at 37° C.; 2 to 64 μg/mL; prepared in DMSO or in 6% Tween/4.5% Glycocholate/5% EtOH formulation
Procedure: In vitro toxicity: Sheep red blood cells were exposed to Compound 1 for 2 hrs at 37° C. at concentrations ranging from 2 to 64 μg/mL. Hemolytic activity was determined by monitoring the amount of hemoglobin released spectrophotometrically.

36 cancer cell lines = test: In vitro cytotoxic activity, mean of all cell lines of the panel; type: cell-based; settings: mean over the 36 cell lines
Procedure: Culture conditions and activity evaluations of Compound 1 against 36 cancer cell lines were done as described below. Results were expressed as the concentration of drug which inhibits 50% of the cell growth (IC50, calculated using the formula: [Ti/C]×100=−50).
The compound was dissolved at 10 mM in DMSO. Dilution in vehicle to concentrations of 30, 10, 3, 1 and 0.3 μM were prepared immediately before assays. Depending on the cell line's growth characteristics, 4000-10000 cells were plated in two 96-wells pates (day 0) and incubated for 16 hours. The following day, propidium iodide was added to one of the two plates. Test compound was added to the second plate, as well as vehicle control, and cells further incubated for 96 hours. The compound was tested at each concentration and in triplicates. The equivalent cell number was determined after adding propidium iodide by measuring the signal by fluorescence (Ti for test article, C for control).

[4] = system: Staphylococcus aureus (ATCC™ 6538P); test: Antibacterial activity, MIC (NCCLS M7-A5); type: cell-based; settings: MH medium, 35° C., 16 to 20 hours
[5] = system: Staphylococcus aureus MRS3 (ATCC™ 700699); test: Antibacterial activity, MIC (NCCLS M7-A5); type: cell-based; settings: MH medium, 35° C., 16 to 20 hours
SF268 (CNS) = test: In vitro tumor growth inhibition (GI50, propidium iodide); type: cell-based; settings: Homo sapiens; SF-268; 96 hrs
[6] = system: Streptococcus pneumoniae (LSPQ 3412); test: Antibacterial activity, MIC (NCCLS M7-A5); type: cell-based; settings: MH medium +2% lysed horse blood
[7] = system: Saccharomyces cerevisiae FHCRC-50014; test: Antifungal activity, MIC (NCCLS M27-A); type: cell-based; settings: FHCRC50014, after 24 hours, YPD medium
Procedure: (§3) Testing of antifungal activity was performed according to NCCLS method (NCCLS. Reference Method for Broth Dilution Antifungal Susceptibility Testing of Yeasts; Approved Standard. NCCLS document M27-A (ISBN 1-56238-328-0). NCCLS, 940 West Valley Road, Suite 1400, Wayne, Pa. 19087-1898 USA; www.nccls.org.). Compound 1 was prepared as 100× stock solutions in DMSO, with concentrations ranging from 3.2 mg/mL to 0.003 mg/mL (a two-fold dilution series over 11 points). An aliquot of each 100× stock solution was diluted 50-fold in test medium described below to give a set of eleven (11) 2× solutions. 50 μL of each of the eleven 2× solutions was aliquoted into the corresponding well of a 12-well row, with the final well reserved for medium alone control. Inoculum density for each indicator strain was adjusted to OD600=0.1 in 5 mL 0.85% saline, then further diluted 1/1000 in YPD medium. 50 μL of the final dilution (in test medium) of each indicator strain was added to each well of a 12-well row. This brings the final dilution of the test article or control compound in solution to 1×. The final inoculum was approximately 5×10^4 CFU/ml.
(§4) Bacterial strains Streptococcus pneumoniae LSPQ 3412 and LSPQ 3349 were obtained from the “Laboratoire de Sante Publique du Quebec”. Saccharomyces cerevisiae FHCRC-50014 and FHCRC-50514 were obtained from the “Fred Hutchison Cancer Research Center”.

[8] = system: Saccharomyces cerevisiae FHCRC-50514; test: Antifungal activity, MIC (NCCLS M27-A); type: cell-based; settings: FHCRC50514, after 24 hours, YPD medium
Procedure: as §3, §4

[9] = system: HT-29 (colorectal carcinoma); test: In vitro tumor growth inhibition (GI50, propidium iodide); type: cell-based; settings: Homo sapiens, 96 hrs
[10] = system: Escherichia coli (ATCC™ 25922); test: Antibacterial activity (NCCLS M7-A5); type: cell-based; settings: MH medium
[11] = system: Enterococcus faecalis VRE-1 (ATCC™ 29212); test: Antibacterial activity, MIC (NCCLS M7-A5); type: cell-based; settings: BHI+ medium, 35° C., 16 to 20 hours
[12] = system: Enterococcus faecalis VRE-2 (ATCC™ 51299); test: Antibacterial activity, MIC (NCCLS M7-A5); type: cell-based; settings: BHI+ medium, 35° C., 16 to 20 hours

Compound: CCC(C)c1cc2c(=O)c3ccc4c(OC)c5c(=O)c6c(O)ccc(O)c6c(=O)c5c(O)c4c3c(=O)c2c(=O)n1CC(=O)N1CC(C(=O)O)NC(=O)C1C (stereo not shown) [Compound 1]
- Injection site observation (CD-1 nu/nlu mice): necrosis at the injection site was observed
- MTD ([1]; ip): ≥ 50 mg/kg
- MTD ([1]; iv): 25 mg/kg
- MTD [2]: ≥ 5 mg/kg
- GI50 [3]: 14.6 µM
- MTTD (maximum total tolerated dose) (CRL nu/nu mice; qd×4 dosage regimen, 6% Tween/4.5% Glycocholate/5% EtOH formulation): 25 mg/kg
- Organ findings following repeated dosage (CRL nu/nu mice; spleen and liver, repeated dosage): Adaptive hypertrophy and hyperplasia were observed in spleen and liver
- Hemolytic activity (hemoglobin released) (Sheep red blood cells): did not display hemolytic activity up to 64 μg/mL
- IC50 (36 cancer cell lines): 9.34 µM
- MIC [4]: 0.016 µg/mL (≈ 0.0217 µM)
- MIC [5]: 0.016 µg/mL (≈ 0.0217 µM)
- GI50 (SF268 (CNS)): 3.36 µM
- MIC [6]: 0.5 to 1 µg/mL (≈ 0.678 to 1.36 µM)
- MIC [7]: 8 µg/mL (≈ 10.8 µM)
- MIC [8]: 8 µg/mL (≈ 10.8 µM)
- GI50 [9]: 8.85 µM
- Antibacterial activity [10]: inactive
- MIC [11]: 0.063 µg/mL (≈ 0.0854 µM)
- MIC [12]: 0.125 µg/mL (≈ 0.169 µM)

— patent US20060106028A1, “Polycyclic aromatics and derivatives thereof and processes for their preparation” (priority 2004, published 2006)
